Results published in ChEMBL document CHEMBL4152300, “Discovery of the selective and efficacious inhibitors of FLT3 mutations” (Eur J Med Chem, 2018).

Legend:
[1] = target: T1, Receptor-type tyrosine-protein kinase FLT3 (Homo sapiens, UniProt P36888)
T1 sequence (P36888 whole entry): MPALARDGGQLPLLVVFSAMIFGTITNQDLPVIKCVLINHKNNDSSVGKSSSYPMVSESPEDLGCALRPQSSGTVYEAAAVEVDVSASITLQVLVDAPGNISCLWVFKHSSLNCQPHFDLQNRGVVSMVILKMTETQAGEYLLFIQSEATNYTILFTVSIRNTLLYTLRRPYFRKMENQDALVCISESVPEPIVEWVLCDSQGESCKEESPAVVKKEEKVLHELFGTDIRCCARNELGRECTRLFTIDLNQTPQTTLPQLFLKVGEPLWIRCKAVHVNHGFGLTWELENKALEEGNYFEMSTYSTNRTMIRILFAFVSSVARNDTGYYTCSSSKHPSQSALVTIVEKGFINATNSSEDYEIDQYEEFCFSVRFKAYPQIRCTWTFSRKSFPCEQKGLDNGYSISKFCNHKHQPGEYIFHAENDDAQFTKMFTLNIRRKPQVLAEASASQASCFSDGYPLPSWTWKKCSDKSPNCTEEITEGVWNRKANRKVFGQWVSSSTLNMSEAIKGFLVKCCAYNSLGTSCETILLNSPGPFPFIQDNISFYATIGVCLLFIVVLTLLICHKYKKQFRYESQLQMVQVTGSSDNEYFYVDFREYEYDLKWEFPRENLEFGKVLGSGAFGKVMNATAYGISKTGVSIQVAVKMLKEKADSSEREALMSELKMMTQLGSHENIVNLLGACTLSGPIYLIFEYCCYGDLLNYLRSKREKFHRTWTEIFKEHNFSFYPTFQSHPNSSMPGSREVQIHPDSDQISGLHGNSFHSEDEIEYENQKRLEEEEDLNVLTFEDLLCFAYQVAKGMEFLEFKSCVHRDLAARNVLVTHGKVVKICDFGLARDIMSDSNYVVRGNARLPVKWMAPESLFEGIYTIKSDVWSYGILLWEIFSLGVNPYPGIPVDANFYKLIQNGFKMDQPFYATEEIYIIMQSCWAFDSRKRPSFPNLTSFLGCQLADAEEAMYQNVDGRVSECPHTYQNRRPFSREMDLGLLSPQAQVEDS
Description: Inhibition of human FLT3 by Hotspot assay

[2] = target: T2, Cyclin-dependent kinase 6 (Homo sapiens, UniProt Q00534); experiment: Inhibition of CDK6 (unknown origin) assessed as residual activity at 0.123 uM by Hotspot assay relative to control
T2 sequence (Q00534 whole entry): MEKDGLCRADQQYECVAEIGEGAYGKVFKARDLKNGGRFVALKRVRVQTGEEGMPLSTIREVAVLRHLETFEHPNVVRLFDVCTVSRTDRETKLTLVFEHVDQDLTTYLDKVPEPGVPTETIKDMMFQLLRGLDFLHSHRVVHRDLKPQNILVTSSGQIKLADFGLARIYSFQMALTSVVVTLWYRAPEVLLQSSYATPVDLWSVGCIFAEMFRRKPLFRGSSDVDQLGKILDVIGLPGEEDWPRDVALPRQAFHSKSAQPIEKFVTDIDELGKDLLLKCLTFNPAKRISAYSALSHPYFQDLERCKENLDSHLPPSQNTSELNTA

[3] = target: T3, CDK2 (cyclin-dependent kinase 2) (Homo sapiens, UniProt P24941); experiment: Inhibition of CDK2 (unknown origin) assessed as residual activity at 0.123 uM by Hotspot assay relative to control; conditions: CDK2 enzyme (unknown origin), read-out: Activity
[4] = test system: MV4-11; experiment: Growth inhibition of human MV4-11 cells harboring FLT3-ITD after 72 hrs by Cell-Titer Glo assay; type: functional, cell-based; conditions: MV4-11, 72 h
[5] = target: T2, Cyclin-dependent kinase 6; experiment: Inhibition of CDK6 (unknown origin) at 0.123 uM by Hotspot assay relative to control
[6] = target: T2, Cyclin-dependent kinase 6; experiment: Inhibition of CDK6 (unknown origin) by Hotspot assay
[7] = target: Cyclin-dependent kinase 2 (Homo sapiens, UniProt P24941); experiment: Inhibition of CDK2 (unknown origin) by Hotspot assay
[8] = target: T3, CDK2 (cyclin-dependent kinase 2); experiment: Inhibition of CDK2 (unknown origin) at 0.123 uM by Hotspot assay relative to control; conditions: CDK2 enzyme (unknown origin)
[9] = target: T4, Receptor-type tyrosine-protein kinase FLT3 (Homo sapiens, UniProt P36888); experiment: Inhibition of human FLT3 assessed as residual activity at 0.123 uM by Hotspot assay relative to control
[10] = target: Cyclin-dependent kinase 4/cyclin D1 (Homo sapiens, UniProt P11802); experiment: Inhibition of human CDK4/Cyclin-D1 at 0.123 uM by Hotspot assay; type: protein-complex assay
Cyclin-dependent kinase 4/cyclin D1, sequence (P11802 whole entry): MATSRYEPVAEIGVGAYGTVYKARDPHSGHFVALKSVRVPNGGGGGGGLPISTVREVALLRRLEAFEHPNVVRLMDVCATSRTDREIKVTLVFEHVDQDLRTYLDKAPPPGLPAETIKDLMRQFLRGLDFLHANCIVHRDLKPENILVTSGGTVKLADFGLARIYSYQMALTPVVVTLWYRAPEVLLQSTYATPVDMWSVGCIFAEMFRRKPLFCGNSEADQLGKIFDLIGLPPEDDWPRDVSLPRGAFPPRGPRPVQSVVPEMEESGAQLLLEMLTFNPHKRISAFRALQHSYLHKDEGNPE
Cyclin-dependent kinase 4/cyclin D1, sequence (P24385 whole entry, further chain): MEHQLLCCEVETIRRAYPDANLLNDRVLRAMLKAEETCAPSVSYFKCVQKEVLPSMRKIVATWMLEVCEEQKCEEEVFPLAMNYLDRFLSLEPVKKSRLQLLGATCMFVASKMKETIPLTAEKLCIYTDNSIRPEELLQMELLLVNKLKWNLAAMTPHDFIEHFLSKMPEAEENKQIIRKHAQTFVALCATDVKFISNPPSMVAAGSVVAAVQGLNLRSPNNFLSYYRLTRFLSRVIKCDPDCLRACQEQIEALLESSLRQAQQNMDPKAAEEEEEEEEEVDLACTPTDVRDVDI

[11] = target: CDK6/cyclin D1 (Homo sapiens, UniProt Q00534); experiment: Inhibition of human CDK6/Cyclin-D1 at 0.123 uM by Hotspot assay; type: protein-complex assay
CDK6/cyclin D1, sequence (P24385 whole entry): as the sequence (P24385 whole entry, further chain) above
CDK6/cyclin D1, sequence (Q00534 whole entry): as the sequence (Q00534 whole entry) above

[12] = target: T5, Receptor-type tyrosine-protein kinase FLT3 (Homo sapiens, UniProt P36888, ITD); experiment: Inhibition of human FLT3 ITD-NPOS mutant by Hotspot assay
[13] = target: T5, Receptor-type tyrosine-protein kinase FLT3; experiment: Inhibition of human FLT3 ITD-W51 mutant by Hotspot assay
[14] = test system: K562; experiment: Growth inhibition of FLT3 null human K562 cells after 72 hrs by Cell-Titer Glo assay; type: functional, cell-based; conditions: K562, 72 h
[15] = target: T4, Receptor-type tyrosine-protein kinase FLT3; experiment: Inhibition of human FLT3 Y591-V592 mutant by Hotspot assay
[16] = target: Receptor-type tyrosine-protein kinase FLT3 (Homo sapiens, UniProt P36888, D835V/ITD); experiment: Binding affinity to human FLT3 ITD/D835V double mutant expressed in bacterial expression system by Kinomescan method
[17] = target: T4, Receptor-type tyrosine-protein kinase FLT3; experiment: Inhibition of human FLT3 F594_R595insREY mutant by Hotspot assay
[18] = Half life in human liver microsomes preincubated for 5 mins followed by NADPH addition by LC-MS/MS analysis; type: ADME, microsome
[19] = Drug uptake in human liver microsomes up to 60 mins by LC-MS/MS analysis; type: ADME, microsome; conditions: 1 h
[20] = target: Receptor-type tyrosine-protein kinase FLT3 (Homo sapiens, UniProt P36888, F691L/ITD); experiment: Binding affinity to human FLT3 ITD/F691L double mutant expressed in bacterial expression system by Kinomescan method
[21] = target: CDK2/Cyclin A2 (Homo sapiens, UniProt P24941); experiment: Inhibition of human CDK2/Cyclin-A at 0.123 uM by Hotspot assay; type: protein-complex assay
[22] = target: T4, Receptor-type tyrosine-protein kinase FLT3; experiment: Inhibition of human FLT3 R595_E596 mutant by Hotspot assay
[23] = Intrinsic clearance in human liver microsomes preincubated for 5 mins followed by NADPH addition by LC-MS/MS analysis; type: ADME, microsome; conditions: read-out: CLH
[24] = target: T6, Receptor-type tyrosine-protein kinase FLT3 (Homo sapiens, UniProt P36888, D835Y); experiment: Binding affinity to human FLT3 D835Y mutant (Q580 to Y969 residues) expressed in bacterial expression system by Kinomescan method
[25] = target: Mitogen-activated protein kinase 15 (Homo sapiens, UniProt Q8TD08); experiment: Inhibition of human ERK7 at 0.123 uM by Hotspot assay
Mitogen-activated protein kinase 15, sequence (Q8TD08 whole entry): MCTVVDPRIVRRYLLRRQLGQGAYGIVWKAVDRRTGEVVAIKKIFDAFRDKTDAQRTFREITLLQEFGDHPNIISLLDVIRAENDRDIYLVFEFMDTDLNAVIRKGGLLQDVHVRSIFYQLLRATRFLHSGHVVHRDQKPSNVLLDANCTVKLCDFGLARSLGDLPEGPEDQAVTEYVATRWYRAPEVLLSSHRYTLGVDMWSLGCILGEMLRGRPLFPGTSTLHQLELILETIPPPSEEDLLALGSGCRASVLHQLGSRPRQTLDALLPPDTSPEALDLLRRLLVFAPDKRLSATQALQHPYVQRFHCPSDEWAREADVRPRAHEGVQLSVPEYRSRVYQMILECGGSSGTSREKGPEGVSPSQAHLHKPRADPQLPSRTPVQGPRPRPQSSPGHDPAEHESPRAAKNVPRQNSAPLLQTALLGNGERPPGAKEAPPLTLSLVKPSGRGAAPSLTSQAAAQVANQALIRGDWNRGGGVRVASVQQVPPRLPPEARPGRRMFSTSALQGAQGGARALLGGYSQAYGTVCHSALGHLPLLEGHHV

[26] = test system: MOLM-13; experiment: Growth inhibition of human MOLM13 cells harboring FLT3-ITD after 72 hrs by Cell-Titer Glo assay; type: functional, cell-based; conditions: MOLM-13, 72 h
[27] = target: T6, Receptor-type tyrosine-protein kinase FLT3; experiment: Inhibition of human FLT3 D835Y mutant by Hotspot assay
[28] = target: Vascular endothelial growth factor receptor 3 (Homo sapiens, UniProt P35916); experiment: Inhibition of human FLT4 by Hotspot assay
Vascular endothelial growth factor receptor 3, sequence (P35916 whole entry): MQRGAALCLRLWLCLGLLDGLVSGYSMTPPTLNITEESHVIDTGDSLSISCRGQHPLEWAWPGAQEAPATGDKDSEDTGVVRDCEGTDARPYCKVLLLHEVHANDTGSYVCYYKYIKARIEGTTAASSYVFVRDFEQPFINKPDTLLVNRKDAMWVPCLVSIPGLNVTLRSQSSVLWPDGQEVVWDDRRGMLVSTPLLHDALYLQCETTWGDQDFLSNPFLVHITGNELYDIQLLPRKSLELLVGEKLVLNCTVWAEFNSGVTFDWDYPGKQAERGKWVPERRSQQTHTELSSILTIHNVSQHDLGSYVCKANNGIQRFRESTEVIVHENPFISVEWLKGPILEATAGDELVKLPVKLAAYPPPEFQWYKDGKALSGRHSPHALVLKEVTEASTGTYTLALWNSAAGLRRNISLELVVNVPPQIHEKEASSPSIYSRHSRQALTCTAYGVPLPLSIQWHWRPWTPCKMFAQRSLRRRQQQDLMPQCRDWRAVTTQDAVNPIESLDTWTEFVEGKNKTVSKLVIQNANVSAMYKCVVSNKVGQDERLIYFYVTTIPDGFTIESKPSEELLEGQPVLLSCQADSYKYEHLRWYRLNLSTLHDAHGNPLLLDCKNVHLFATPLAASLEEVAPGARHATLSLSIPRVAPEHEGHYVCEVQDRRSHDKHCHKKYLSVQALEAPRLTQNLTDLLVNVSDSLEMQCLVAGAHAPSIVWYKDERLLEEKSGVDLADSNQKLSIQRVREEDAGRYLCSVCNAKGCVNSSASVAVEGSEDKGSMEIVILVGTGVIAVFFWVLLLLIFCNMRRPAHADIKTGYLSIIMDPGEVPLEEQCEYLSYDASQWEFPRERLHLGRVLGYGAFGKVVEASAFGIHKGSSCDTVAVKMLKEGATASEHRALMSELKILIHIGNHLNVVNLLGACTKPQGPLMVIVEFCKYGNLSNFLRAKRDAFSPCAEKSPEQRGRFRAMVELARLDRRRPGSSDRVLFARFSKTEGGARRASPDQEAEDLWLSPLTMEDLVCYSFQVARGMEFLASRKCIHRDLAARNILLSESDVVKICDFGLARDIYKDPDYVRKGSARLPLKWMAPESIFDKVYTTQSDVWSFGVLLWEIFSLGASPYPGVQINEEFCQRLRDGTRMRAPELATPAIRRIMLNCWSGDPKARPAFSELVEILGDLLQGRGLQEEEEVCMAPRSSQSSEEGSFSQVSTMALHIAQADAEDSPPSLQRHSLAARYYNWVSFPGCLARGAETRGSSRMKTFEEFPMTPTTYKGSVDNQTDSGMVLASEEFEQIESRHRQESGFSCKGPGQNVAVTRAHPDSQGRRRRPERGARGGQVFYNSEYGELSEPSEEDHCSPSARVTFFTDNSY

[29] = test system: HL-60; experiment: Growth inhibition of human HL60 cells expressing low levels of FLT3 after 72 hrs by Cell-Titer Glo assay; type: functional, cell-based; conditions: HL-60, 72 h
[30] = target: T4, Receptor-type tyrosine-protein kinase FLT3; experiment: Inhibition of human FLT3 F594_R595insR mutant by Hotspot assay
[31] = species: Homo sapiens; experiment: Selectivity ratio of IC50 for CDK6 (unknown origin) to IC50 for human FLT3
[32] = species: Homo sapiens; experiment: Selectivity ratio of IC50 for CDK2 (unknown origin) to IC50 for human FLT3

## Cc1nc(Nc2c[nH]nc2C(=O)Nc2ccc(CN3CCOCC3)cc2)c2ccsc2n1
[1]
  IC50: 3.63 nM
[2]
  Activity: 79.7%
[3]
  activity at 0.123 µM: 52%
[4]
  IC50: 62 nM

## Cc1nc(Nc2c[nH]nc2C(=O)Nc2ccc(CN3CCN(C)CC3)cc2)c2cc(C(C)C)sc2n1
[1]
  IC50: 0.73 nM
[5]
  inhibition: > 80%
[6]
  IC50: 19.2 nM
[7]
  IC50: 21.5 nM
[8]
  inhibition at 0.123 µM: > 80%
[4]
  IC50: 65 nM

## CC(C)c1nc(Nc2c[nH]nc2C(=O)Nc2ccc(N3CCNCC3)cc2)c2ccsc2n1
[1]
  IC50: 11.3 nM
[2]
  Activity: 93.5%
[3]
  activity at 0.123 µM: 101%
[4]
  IC50: 57 nM

## Cc1nc(Nc2c[nH]nc2C(=O)Nc2ccc(N3CCOCC3)cc2)c2ccsc2n1
[1]
  IC50: 3.8 nM
[2]
  Activity: 83.1%
[3]
  activity at 0.123 µM: 78.8%
[4]
  IC50: 33 nM

## CC(C)(C)c1nc(Nc2c[nH]nc2C(=O)Nc2ccc(N3CCNCC3)cc2)c2ccsc2n1
[1]
  IC50: 20.5 nM
[2]
  Activity: 99.2%
[3]
  activity at 0.123 µM: 100%
[4]
  IC50: 98 nM

## O=C(Nc1ccc(N2CCNCC2)cc1)c1n[nH]cc1Nc1nc(Cl)nc2sccc12
[1]
  IC50: 0.47 nM
[2]
  Activity: 63.6%
[3]
  activity at 0.123 µM: 56.8%
[4]
  IC50: 26 nM

## CN1CCN(Cc2ccc(NC(=O)c3nn(C)cc3Nc3ncnc4[nH]ccc34)cc2)CC1
[2]
  Activity: 99.3%
[3]
  activity at 0.123 µM: 98.5%
[9]
  Activity: 87.6%

## O=C(Nc1ccc(CN2CCOCC2)cc1)c1n[nH]cc1Nc1nc(C2CC2)nc2sccc12
[1]
  IC50: 16.5 nM
[2]
  Activity: 95.4%
[3]
  activity at 0.123 µM: 81.4%
[4]
  IC50: 78 nM

## Cc1nc2c(c(Nc3c[nH]nc3C(=O)Nc3ccc(N4CCNCC4)cc3)n1)CCCC2
[1]
  IC50: 0.66 nM
[2]
  Activity: 87.2%
[3]
  activity at 0.123 µM: 79.4%
[4]
  IC50: 18 nM

## O=C(Nc1ccc(N2CCNCC2)cc1)c1n[nH]cc1Nc1nc(C2CC2)nc2sccc12
[1]
  IC50: 2.53 nM
[2]
  Activity: 88%
[3]
  activity at 0.123 µM: 97.4%
[4]
  IC50: 59 nM

## CN1CCN(Cc2ccc(NC(=O)c3n[nH]cc3Nc3nc(C4CC4)nc4sccc34)cc2)CC1
[1]
  IC50: 15.7 nM
[2]
  Activity: 103%
[3]
  activity at 0.123 µM: 89.8%
[4]
  IC50: 61 nM

## Cc1nc(Nc2c[nH]nc2C(=O)Nc2ccc(N3CCN(C)CC3)cc2)c2ccsc2n1
[1]
  IC50: 0.95 nM
[2]
  Activity: 72.7%
[3]
  activity at 0.123 µM: 71.2%
[4]
  IC50: 27 nM

## CN1CCN(Cc2ccc(NC(=O)c3n[nH]cc3Nc3ncnc4sccc34)cc2)CC1
[10]
  IC50: < 10 nM
[11]
  IC50: < 10 nM
[12]
  IC50: 17.5 nM
[13]
  IC50: 1.85 nM
[14]
  IC50: 235 nM
[15]
  IC50: 13.2 nM
[16]
  Kd: 0.23 nM
[17]
  IC50: 7.35 nM
[1]
  IC50: 0.6 nM
[18]
  half-life: 51 min
[19]
  Drug uptake: 29.7%
[20]
  Kd: 1.3 nM
[21]
  IC50: < 10 nM
[5]
  inhibition: > 80%
[22]
  IC50: 2.67 nM
[23]
  microsomal CLint: 13.6 µL/min/mg
[24]
  Kd: 7.01 nM
[25]
  IC50: < 10 nM
[6]
  IC50: 3.33 nM
[26]
  IC50: 39 nM
[8]
  inhibition at 0.123 µM: > 80%
[27]
  IC50: 0.54 nM
[28]
  IC50: 4.5 nM
[29]
  IC50: 334 nM
[30]
  IC50: 1.23 nM
[4]
  IC50: 16 nM

## CCc1nc(Nc2c[nH]nc2C(=O)Nc2ccc(N3CCNCC3)cc2)c2ccsc2n1
[1]
  IC50: 3.42 nM
[2]
  Activity: 87%
[3]
  activity at 0.123 µM: 86.6%
[4]
  IC50: 65 nM

## Cc1nc(Nc2c[nH]nc2C(=O)Nc2ccc(CN3CCN(C)CC3)cc2)c2ccsc2n1
[31]
  Ratio IC50: 100
[1]
  IC50: 0.65 nM
[2]
  Activity: 72.1%
[3]
  activity at 0.123 µM: 51.1%
[32]
  Ratio IC50: 100
[4]
  IC50: 52 nM

## Cc1[nH]nc(C(=O)Nc2ccc(CN3CCN(C)CC3)cc2)c1Nc1ncnc2[nH]ccc12
[2]
  Activity: 95.7%
[3]
  activity at 0.123 µM: 99.9%
[9]
  Activity: 98.5%

## Cc1nc(Nc2c[nH]nc2C(=O)Nc2ccc(N3CCNCC3)cc2)c2ccsc2n1
[31]
  Ratio IC50: 131
[1]
  IC50: 0.62 nM
[5]
  inhibition: > 80%
[6]
  IC50: 84.3 nM
[7]
  IC50: 81.5 nM
[8]
  inhibition at 0.123 µM: > 80%
[32]
  Ratio IC50: 131
[4]
  IC50: 19 nM

## Cc1nc(Nc2c[nH]nc2C(=O)Nc2ccc(CN3CCOCC3)cc2)c2cc(C(C)C)sc2n1
[1]
  IC50: 0.66 nM
[5]
  inhibition: > 80%
[6]
  IC50: 33.2 nM
[7]
  IC50: 25.4 nM
[8]
  inhibition at 0.123 µM: > 80%
[4]
  IC50: 48 nM

## Cc1[nH]nc(C(=O)Nc2ccc(CN3CCN(C)CC3)cc2)c1Nc1ncnc2sccc12
[2]
  Activity: 96.2%
[3]
  activity at 0.123 µM: 99.7%
[9]
  Activity: 98.5%
